These molecules were tested on human colon carcinoma cell line, Caco-2 (assay: Fructose absorption inhibitory activity in the intestinal tracts (fructose permeation across a Caco-2 monolayer in Transwell inserts)). Conditions: Dosage 5 μg/ml; 50 mM fructose, 3 h, Caco-2 Transwell.
Format: cell-based
Experimental: Evaluation of fructose absorption inhibitory activity was carried out using the human colon carcinoma cell line, Caco-2 (manufactured by Dainippon Sumitomo Pharma Co., Ltd.) utilized for model experiments of the small intestinal mucosa. […] Caco-2 cells were seeded in a 6-well Transwell Insert (internal area: 4.2 cm2) and subcultured for around 3 weeks, while DMEM medium was replaced once every 3 to 4 days, until the Caco-2 cell density became around 2×10^5 cells/insert. The TEER value was measured before experiments and the state of Caco-2 cells was confirmed. […] Medium in the 6-well Transwell Insert was removed. […] A sample solution of each sample illustrated in Table 1 was added to the insert and each mixture was preincubated for 5 min. […] The TEER values were measured. […] The measurement was carried out three times for each sample illustrated in Table 1. The fructose concentrations of the permeated solutions were measured by an enzymatic method using D-fructose dehydrogenase (derived from Gluconobac sp.) (The concentration of each reagent represents the final concentration, respectively.). […] The fructose absorption inhibitory rate of each compound was determined using the following formula (I). […] As control, measurement was also carried out for gallic acid, ellagic acid, quercetin, (+)-catechin, (−)-epicatechin and (−)-epigallocatechin gallate.

Row | Molecule | Inhibitory Rate [%]
1 | O=C(O[C@H]1[C@@H]2OC(=O)c3cc(O)c(O)c(O)c3-c3c(cc(O)c(O)c3O)C(=O)OC[C@H]2OC(O)[C@@H]1OC(=O)c1cc(O)c(O)c(O)c1)c1cc(O)c(O)c(O)c1 (stereo partly shown) [compound 1, Tellimagrandin I] | 49
2 | O=C(O[C@@H]1O[C@@H]2COC(=O)c3cc(O)c(O)c(O)c3-c3c(cc(O)c(O)c3O)C(=O)O[C@H]2[C@H](OC(=O)c2cc(O)c(O)c(O)c2)[C@H]1O)c1cc(O)c(O)c(O)c1 [compound 5, 1,3-di-O-galloyl-4,6-HHDP-β-D-glucose] | 57
3 | O=C(O[C@H]1[C@@H]2OC(=O)c3cc(O)c(O)c(O)c3-c3c4cc(c(O)c3O)Oc3c(cc(O)c(O)c3O)C(=O)O[C@H]3C(O)O[C@@H]5COC(=O)c6cc(O)c(O)c(O)c6-c6c(cc(c(O)c6O)Oc6c(cc(O)c(O)c6O)C(=O)O[C@H]1C(O)O[C@@H]2COC4=O)C(=O)O[C@H]5[C@@H]3OC(=O)c1cc(O)c(O)c(O)c1)c1cc(O)c(O)c(O)c1 (stereo partly shown) [compound 7, Oenothein B] | 63
4 | (−)-epigallocatechin gallate [compound 16, reference compound] | 28
5 | Eugeniflorin D2 [compound 6] | 53

Same assay, conditions: Dosage 50 μg/ml; 50 mM fructose, 3 h, Caco-2 Transwell

Row | Molecule | Inhibitory Rate [%]
6 | Oc1cc(O)c2c(c1)O[C@H](c1ccc(O)c(O)c1)[C@@H](O)C2 [compound 14, (+)-catechin, reference compound] | <10
7 | Oc1cc(O)c2c(c1)O[C@H](c1ccc(O)c(O)c1)[C@H](O)C2 [compound 15, (−)-epicatechin, reference compound] | <10

Same assay, conditions: Homo sapiens; Dosage 5 μg/ml; 50 mM fructose, 3 h, Caco-2 Transwell; read-out: Inhibitory Rate

Row | Molecule | inhibition at 5 µg/mL [%]
8 | O=C(OC1O[C@@H]2COC(=O)c3cc(O)c(O)c(O)c3-c3c(cc(O)c(O)c3O)C(=O)O[C@H]2[C@H](OC(=O)c2cc(O)c(O)c(O)c2)[C@H]1OC(=O)c1cc(O)c(O)c(O)c1)c1cc(O)c(O)c(O)c1 (stereo partly shown) [compound 2, Tellimagrandin II] | 52
9 | O=C(O[C@@H]1O[C@@H]2COC(=O)c3cc(O)c(O)c(O)c3-c3c(cc(O)c(O)c3O)C(=O)O[C@H]2[C@H](O)[C@H]1O)c1cc(O)c(O)c(O)c1 [compound 3, Strictinin] | 43
10 | O=C(O[C@@H]1O[C@@H]2COC(=O)c3cc(O)c(O)c(O)c3-c3cc(c(O)c(O)c3O)C(=O)O[C@H]2[C@@H]2OC(=O)c3cc(O)c(O)c(O)c3-c3c(cc(O)c(O)c3O)C(=O)O[C@@H]12)c1cc(O)c(O)c(O)c1 [compound 4, Casuarictin] | 46

Same assay, conditions: Homo sapiens; Dosage 50 μg/ml; 50 mM fructose, 3 h, Caco-2 Transwell; read-out: Inhibitory Rate

Row | Molecule | inhibition at 50 µg/mL [%]
11 | O=C(O)c1cc(O)c(O)c(O)c1 [compound 11, Gallic acid, reference compound] | 19
12 | O=c1oc2c(O)c(O)cc3c(=O)oc4c(O)c(O)cc1c4c23 [compound 12, Ellagic acid, reference compound] | 22
13 | O=c1c(O)c(-c2ccc(O)c(O)c2)oc2cc(O)cc(O)c12 [compound 13, Quercetin, reference compound] | 23
